Source: patent US20250075190A1, “DE NOVO DESIGNED LUCIFERASE” (UNIVERSITY OF WASHINGTON, priority 2022, published 2025)

Key:
Format in all cases: biochemical
[1] = tested on: LuxSit-i (de novo designed luciferase; LuxSit variant R60S/A96L/M110V, 60S/96L/98H/110V; SEQ ID NO:2); test: Michaelis-Menten kinetics of LuxSit-i with DTZ; settings: substrate DTZ; for Km / Vmax: Tris pH 8.0
From the text: (§1) Synthetic genes and oligonucleotides were purchased from Integrated DNA Technologies or GenScript. The synthetic gene was inserted between NdeI and XhoI sites of a pET29b+ vector, containing an N-terminal hexahistidine tag followed by a TEV protease cleavage site and a C-terminal stop codon. Restriction endonucleases, Q5 PCR polymerase, and T4 ligase were purchased from NEB. Plasmid DNA, PCR products, or digested fragments were purified by Qiagen DNA purification kits. DNA sequences were analyzed by Genewiz. Coelenterazine (CTZ) was purchased from Gold Biotechnology. Diphenylterazine (DTZ), pyridyl diphenylterazine (8pyDTZ), and Furimazine (FRZ) were purchased from MedChemExpress. All other coelenterazine analogs (bis-CTZ: bisdeoxycoelenterazine; f-CTZ: f-Coelenterazine; e-CTZ: e-Coelenterazine-F; PP-CTZ: methoxy e-Coelenterazine; v-CTZ: v-Coelenterazine. All other chemicals were purchased from Sigma-Aldrich or Fisher Scientific and used without further purification. To identify the molecular mass of each protein, intact mass spectra were obtained via reverse-phase LC/MS on an Agilent 6230B TOF on an AdvanceBio RP-Desalting column and subsequently deconvoluted by Bioconfirm software using a […] algorithm. AKTA pure M with UNICORN 6.3.2 Workstation control (GE Healthcare) coupled with a Superdex™ 75 Increase 10/300 GL column was used for size exclusion chromatography. DNA and protein concentrations were determined by a NanoDrop™ small-volume 8 channel UV/vis spectrometer. CD spectra and CD melting experiments were performed by the default setting on a J-1500 Circular Dichroism Spectropolarimeter (Jasco). All luminescence measurements were acquired by a Biotek Synergy Neo2T™ Multi-Mode Plate Reader. To convert relative arbitrary unit (RLU) to the number of photons, Neo2 plate reader was calibrated by determining the chemiluminescence of luminol with known quantum yield in the presence of horseradish peroxidase and hydrogen peroxide in K2CO3 aqueous solution as previously described^45. SDS PAGE and luminescence images were captured by a Bio-Rad ChemiDocT™ XRS+. Images were analyzed using the Fiji image analysis software.
(§2) Lemo21(DE3) strain was used for transformation with the pET29b+ plasmid encoding the gene of interest. Transformed cells were grown for 12 h in TB medium supplemented with kanamycin. Cells were inoculated at 1:50 ratio in 100 mL fresh TB medium, grown at 37° C. for 4 h, and then induced by IPTG for an additional 18 h at 16° C. Cells were harvested by centrifugation at 4,000 g for 10 min and resuspended in 30 mL lysis buffer (20 mM Tris-HCl pH 8.0, 300 mM NaCl, 30 mM imidazole, and Pierce™ Protease Inhibitor Tablets). Cell resuspensions were lysed by sonication for 5 min (10 s per cycle). Lysates were clarified by centrifugation at 24,000 g at 12° C. for 40 min and pre-equilibrated with 1 mL of Ni-NTA nickel agarose at 4° C. for 1 h. The resin was washed twice with 10 mL wash buffer and then eluted in 1 mL elution buffer (20 mM Tris-HCl pH 8.0, 300 mM NaCl, 300 mM imidazole). The eluted proteins were purified by size exclusion chromatography in PBS. Fractions were collected based on A280 trace, snap-frozen in liquid nitrogen, and stored at −80° C.,
(§3) To create libraries of each single amino acid substitution at residues 13, 14, 17, 18, 35, 37, 38, 49, 52, 53, 56, 60, 65, 81, 83, 94, 96, 98, 100, 110, and 112, forward oligos mixture with degenerate codons (NDT, VHG, and TGG=1:1:0.1 ratio) and an overlapped reverse oligo were used to amplify the plasmid of LuxSit. The resulting PCR products were circularized by Gibson Assembly protocol and were subsequently used to transform ElectroMAX™ DH10B Cells. The cells were plated on 150 mm×15 mm LB agar plates supplemented with carbenicillin and L-arabinose, incubated at 37° C. overnight, and left at 4° C. for another 24 h. As described in the screening of luciferase libraries, colony-based screening by spraying DTZ solution was used to identify active colonies. […]. […]

[2] = tested on: LuxSit-f (de novo designed luciferase; LuxSit variant A96M/M110V, 60R/96M/98H/110V; SEQ ID NO:3); test: Michaelis-Menten kinetics of LuxSit-f with DTZ; settings: substrate DTZ; for Km / Vmax: Tris pH 8.0
From the text: as §1, §2, §3

[3] = tested on: LuxSit (de novo designed luciferase, parent, 60R/96A/98H/110M; SEQ ID NO:1); test: Michaelis-Menten kinetics of LuxSit (parent) with DTZ; settings: substrate DTZ; mean (95% CI), n = 3; Tris pH 8.0
From the text: (§4) Synthetic genes and oligonucleotides were purchased from Integrated DNA Technologies or GenScript. The synthetic gene was inserted between NdeI and XhoI sites of a pET29b+ vector, containing an N-terminal hexahistidine tag followed by a TEV protease cleavage site and a C-terminal stop codon. Restriction endonucleases, Q5 PCR polymerase, and T4 ligase were purchased from NEB. Plasmid DNA, PCR products, or digested fragments were purified by Qiagen DNA purification kits. DNA sequences were analyzed by Genewiz. Coelenterazine (CTZ) was purchased from Gold Biotechnology. Diphenylterazine (DTZ), pyridyl diphenylterazine (8pyDTZ), and Furimazine (FRZ) were purchased from MedChemExpress. […] DNA and protein concentrations were determined by a NanoDrop™ small-volume 8 channel UV/vis spectrometer. […] All luminescence measurements were acquired by a Biotek Synergy Neo2T™ Multi-Mode Plate Reader. To convert relative arbitrary unit (RLU) to the number of photons, Neo2 plate reader was calibrated by determining the chemiluminescence of luminol with known quantum yield in the presence of horseradish peroxidase and hydrogen peroxide in K2CO3 aqueous solution as previously described^45. SDS PAGE and luminescence images were captured by a Bio-Rad ChemiDocT™ XRS+. Images were analyzed using the Fiji image analysis software. […]

[4] = tested on: LuxSit (de novo designed luciferase, SEQ ID NO:1) variant Y14E; test: Michaelis-Menten kinetics of LuxSit Y14E with DTZ; settings: substrate DTZ; mean (95% CI), n = 3; Tris pH 8.0
From the text: as §4

[5] = tested on: LuxSit (de novo designed luciferase, SEQ ID NO:1) variant R60C; test: Michaelis-Menten kinetics of LuxSit R60C with DTZ; settings: substrate DTZ; mean (95% CI), n = 3; Tris pH 8.0
From the text: as §4

[6] = tested on: LuxSit (de novo designed luciferase, SEQ ID NO:1) variant A96I; test: Michaelis-Menten kinetics of LuxSit A96I with DTZ; settings: substrate DTZ; mean (95% CI), n = 3; Tris pH 8.0
From the text: as §4

[7] = tested on: LuxSit (de novo designed luciferase, SEQ ID NO:1) variant A96M; test: Michaelis-Menten kinetics of LuxSit A96M with DTZ; settings: substrate DTZ; mean (95% CI), n = 3; Tris pH 8.0
From the text: as §4

[8] = tested on: LuxSit (de novo designed luciferase, SEQ ID NO:1) variant H98N; test: Michaelis-Menten kinetics of LuxSit H98N with DTZ; settings: substrate DTZ; mean (95% CI), n = 3; Tris pH 8.0
From the text: as §4

[9] = tested on: LuxSit (de novo designed luciferase, SEQ ID NO:1) variant M110C; test: Michaelis-Menten kinetics of LuxSit M110C with DTZ; settings: substrate DTZ; mean (95% CI), n = 3; Tris pH 8.0
From the text: as §4

## O=c1c(Cc2ccccc2)nc2c(-c3ccccc3)[nH]c(-c3ccccc3)cn1-2 [DTZ, Diphenylterazine]
[1]; in words (FIG. 3a)
  apparent Michaelis constant KM: low μM range
[1]; 100 nM enzyme, Table 3
  Km: 2.5 µM
  Vmax: 0.36 photon s^−1 molecule^−1
[1]; kcat=Vmax/LQY, Table 3
  kcat: 2.5 s⁻¹
[1]; mean (95% CI), n = 3, Table 4
  Km: 2.5 µM
  Vmax: 36.1(33.7-38.6) ×10^−2 photon s^−1 molecule^−1
[2]; in words (FIG. 3a)
  apparent Michaelis constant KM: low μM range
[2]; 100 nM enzyme, Table 3
  Km: 8.9 µM
  Vmax: 0.20 photon s^−1 molecule^−1
[2]; kcat=Vmax/LQY, Table 3
  kcat: 1.8 s⁻¹
[2]; mean (95% CI), n = 3, Table 4
  Km: 8.9 µM
  Vmax: 19.7(17.9-21.9) ×10^−2 photon s^−1 molecule^−1
[3]
  Km: 18.3 µM
  Vmax: 0.32(0.29-0.37) ×10^−2 photon s^−1 molecule^−1
[4]
  Km: 12.6 µM
  Vmax: 0.19(0.17-0.21) ×10^−2 photon s^−1 molecule^−1
[5]
  Km: 45.2 µM
  Vmax: 0.57(0.44-0.8) ×10^−2 photon s^−1 molecule^−1
[6]
  Km: 17.5 µM
  Vmax: 1.3(1.1-1.5) ×10^−2 photon s^−1 molecule^−1
[7]
  Km: 4.8 µM
  Vmax: 6.0(5.3-6.9) ×10^−2 photon s^−1 molecule^−1
[8]
  Km: 29.3 µM
  Vmax: 0.17(0.15-0.2) ×10^−2 photon s^−1 molecule^−1
[9]
  Km: 67.5 µM
  Vmax: 0.4(0.3-0.6) ×10^−2 photon s^−1 molecule^−1
